Test results reported in patent US20240065998A1, “MONOACYLGLYCEROL AND FREE FATTY ACID-BASED COMPOSITIONS, METHODS OF MANUFACTURING AND USE OF THE SAME” (priority 2021, published 2024).
Read-outs that look alike come from different tables or passages of the source.

Legend:
[1] = cited from earlier work; for HLB: exemplary HLB value of the single emulsifier
[2] = system: Respiratory syncytial virus (RSV, A2); assay type: cell-based; details: 70%, 2 min, 37 ± 2° C.; for LRV: VC titer 3.3
[3] = system: titer assay cells (MA-104, Vero E6, Vero 76)
SARS-CoV-2, USA_WA1/2020 = assay type: cell-based; details: 70%, 2 min, 37 ± 2° C.
[4] = system: Herpes simplex-1 (HSV-1, H1KOS S1); experiment: Virucidal assay, 2 minute contact, end-point dilution (CCID50, LRV); assay type: cell-based; details: 70%, 2 min, 37 ± 2° C.
[5] = system: Respiratory Syncytial Virus (RSV), Herpes Simplex Virus (HSV), H1N1 flu virus, and SARS-CoV-2; assay type: cell-based; details: nEMO at 0.5 to 50 mg/mL, EtOH 70%
Description: Table 73 below provides formulations of a nEMO sanitizer with 0.5% nEMO, 29.5% glycerol, and 70% […].

[6] = HLB values of compositional components; details: share in the oil phase of ACv14 (% of oil phase x rHLB); Total = sum
Description: HLB is typically considered when planning oil-in-water cream formulations according to the requirements of the cream.
If the Oat EMO is omitted and the Flax FFA oil raised, then a higher rHLB is required, meaning that a larger percentage of the emulsifier can be high HLB (S-20). This 0% Oat MAG (EMO) and 4% Flaxseed FFA oil combo gives an rHLB value of 12.64, which would coincide with a 25/75 ratio of S-2/S-20 or Monolaurin/S-20. This would minimize the amount of S-2 which caused larger coalescence at a 1:1 ratio overnight.

CCCCCCCCCCCC(=O)OCC(O)CO (centres unmarked) [Glyceryl Laurate]
HLB [1]: 5.2

CCO [Ethanol]
Virus Titer ([2]; Table 57A): <0.7 log10 CCID50 of virus per 0.1 mL
LRV ([2]; Table 57A): >2.6
Virus Titer ([2]; Table 57B): <0.7 log10 CCID50 of virus per 0.1 mL
LRV ([2]; Table 57B): >2.6
Toxicity (highest dilution of the endpoint titer with full (80-100%) cytotoxicity) [3]: None
Virus Titer (SARS-CoV-2, USA_WA1/2020; Table 59A): <0.7 log10 CCID50 of virus per 0.1 mL
LRV (SARS-CoV-2, USA_WA1/2020; Table 59A, VC titer 5.3): >4.6
Virus Titer (SARS-CoV-2, USA_WA1/2020; Table 59B): <0.7 log10 CCID50 of virus per 0.1 mL
LRV (SARS-CoV-2, USA_WA1/2020; Table 59B, VC titer 5.0): >4.3
LRV ([4]; Table 60A, VC titer 4.5): >3.8
LRV ([4]; Table 60B, VC titer 5.0): >4.3

Steareth-2
HLB [1]: 4.9

CCO [EtOH]
Virucidal Activity ([5]; H1N1, Log10 of initial virus concentration 5.7): >99.99%
Virucidal Activity ([5]; HSV, Log10 of initial virus concentration 5): >99.99%
Virucidal Activity ([5]; RSV, Log10 of initial virus concentration 3.3): >99%
Virucidal Activity ([5]; SARS-COV-2, Log10 of initial virus concentration 5): >99.99%

CCCCCCCCCCCCCCCCO [Cetyl Alcohol]
rHLB of oil percentage [6]: 3.69
Required HLB (rHLB) ([1]; exemplary value of the oil phase component): 15.5

Glyceryl Stearate SE
HLB [1]: 5.8
